According to ChEMBL document CHEMBL1938230, “6-Position optimization of tricyclic 4-quinolone-based inhibitors of glycogen synthase kinase-3β: discovery of nitrile derivatives with picomolar potency” (Bioorg Med Chem Lett, 2012):

How the values were obtained:
[1] = biological target: Cyclin-dependent kinase 14 (Homo sapiens) (UniProt O94921); assay: Inhibition of human PFTAIRE1 in HL-60 cells lysate assessed as reduction of labeling of acyl-phosphate ATP probe at 100 nM; type: cell-free
[2] = biological target: DNA-dependent protein kinase catalytic subunit (Homo sapiens) (UniProt P78527); assay: Inhibition of human DNAPK in HL-60 cells lysate assessed as reduction of labeling of acyl-phosphate ATP probe at 100 nM; type: cell-free
[3] = biological target: Phosphatidylinositol 4,5-bisphosphate 3-kinase catalytic subunit gamma isoform (Homo sapiens) (UniProt P48736); assay: Inhibition of human PIK3CG in HL-60 cells lysate assessed as reduction of labeling of acyl-phosphate ATP probe at 100 nM; type: cell-free
[4] = biological target: Calcium/calmodulin-dependent protein kinase kinase 2 (Homo sapiens) (UniProt Q96RR4); assay: Inhibition of human CaMKK2 in HL-60 cells lysate assessed as reduction of labeling of acyl-phosphate ATP probe at 100 nM; type: cell-free
[5] = biological target: IKK epsilon/TBK1 (Homo sapiens) (UniProt Q14164+Q9UHD2); assay: Inhibition of human IKKepsilon/TBK1 in HL-60 cells lysate assessed as reduction of labeling of acyl-phosphate ATP probe at 100 nM; type: cell-free
[6] = biological target: Serine/threonine-protein kinase Nek6 (Homo sapiens) (UniProt Q9HC98); assay: Inhibition of human NEK6 in HL-60 cells lysate assessed as reduction of labeling of acyl-phosphate ATP probe at 100 nM; type: cell-free
[7] = biological target: Wee1-like protein kinase (Homo sapiens) (UniProt P30291); assay: Inhibition of human Wee1 in HL-60 cells lysate assessed as reduction of labeling of acyl-phosphate ATP probe at 100 nM; type: cell-free
[8] = test system: HL-60; assay: Inhibition of human Wnk1/Wnk2/Wnk3 in HL-60 cells lysate assessed as reduction of labeling of acyl-phosphate ATP probe at 100 nM
[9] = biological target: Mitogen-activated protein kinase kinase kinase kinase 5 (Homo sapiens) (UniProt Q9Y4K4); assay: Inhibition of human KHS1 in HL-60 cells lysate assessed as reduction of labeling of acyl-phosphate ATP probe at 100 nM; type: cell-free
[10] = biological target: T1, Mitogen-activated protein kinase kinase kinase 3 (Homo sapiens) (UniProt Q99759); assay: Inhibition of human MAP3K3 in HL-60 cells lysate assessed as reduction of labeling of acyl-phosphate ATP probe at 100 nM; type: cell-free
T1 sequence (whole entry): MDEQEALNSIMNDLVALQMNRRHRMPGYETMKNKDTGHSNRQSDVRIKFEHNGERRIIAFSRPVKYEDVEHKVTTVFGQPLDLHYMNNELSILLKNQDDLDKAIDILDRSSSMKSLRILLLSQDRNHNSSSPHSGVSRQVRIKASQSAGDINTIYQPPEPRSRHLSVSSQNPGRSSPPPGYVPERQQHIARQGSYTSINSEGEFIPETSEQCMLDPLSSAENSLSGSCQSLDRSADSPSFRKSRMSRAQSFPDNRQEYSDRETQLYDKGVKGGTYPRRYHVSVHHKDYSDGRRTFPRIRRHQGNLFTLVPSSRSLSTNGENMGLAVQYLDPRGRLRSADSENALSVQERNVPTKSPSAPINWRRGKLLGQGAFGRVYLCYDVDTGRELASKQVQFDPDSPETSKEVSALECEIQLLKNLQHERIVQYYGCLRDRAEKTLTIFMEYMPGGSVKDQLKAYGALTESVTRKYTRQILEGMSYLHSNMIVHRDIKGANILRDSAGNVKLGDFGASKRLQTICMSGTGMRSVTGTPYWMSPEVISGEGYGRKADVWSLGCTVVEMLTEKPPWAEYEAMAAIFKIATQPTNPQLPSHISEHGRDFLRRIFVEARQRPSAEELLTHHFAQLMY

[11] = test system: HL-60; assay: Inhibition of human MST3/MST4/YSK1 in HL-60 cells lysate assessed as reduction of labeling of acyl-phosphate ATP probe at 100 nM
[12] = biological target: Mitogen-activated protein kinase kinase kinase kinase 4 (Homo sapiens) (UniProt O95819); assay: Inhibition of human ZC1/HGK in HL-60 cells lysate assessed as reduction of labeling of acyl-phosphate ATP probe at 100 nM; type: cell-free
[13] = biological target: Tyrosine-protein kinase Fgr (Homo sapiens) (UniProt P09769); assay: Inhibition of human FGR in HL-60 cells lysate assessed as reduction of labeling of acyl-phosphate ATP probe at 100 nM; type: cell-free
[14] = biological target: Tyrosine-protein kinase SYK (Homo sapiens) (UniProt P43405); assay: Inhibition of human SYK in HL-60 cells lysate assessed as reduction of labeling of acyl-phosphate ATP probe at 100 nM; type: cell-free
[15] = biological target: Leucine-rich repeat serine/threonine-protein kinase 2 (Homo sapiens) (UniProt Q5S007); assay: Inhibition of human LRRK2 in HL-60 cells lysate assessed as reduction of labeling of acyl-phosphate ATP probe at 100 nM; type: cell-free
[16] = biological target: Mitogen-activated protein kinase kinase kinase 20 (Homo sapiens) (UniProt Q9NYL2); assay: Inhibition of human ZAK in HL-60 cells lysate assessed as reduction of labeling of acyl-phosphate ATP probe at 100 nM; type: cell-free
[17] = biological target: Mitogen-activated protein kinase 14 (Homo sapiens) (UniProt Q16539); assay: Inhibition of human P38alpha in HL-60 cells lysate assessed as reduction of labeling of acyl-phosphate ATP probe at 100 nM; type: cell-free
[18] = biological target: Cyclin-dependent kinase 6 (Homo sapiens) (UniProt Q00534); assay: Inhibition of human CDK6 in HL-60 cells lysate assessed as reduction of labeling of acyl-phosphate ATP probe at 100 nM; type: cell-free
[19] = biological target: Mitogen-activated protein kinase 3 (Homo sapiens) (UniProt P27361); assay: Inhibition of human Erk1 in HL-60 cells lysate assessed as reduction of labeling of acyl-phosphate ATP probe at 100 nM; type: cell-free
Chain of Mitogen-activated protein kinase 3 (Homo sapiens) (P27361 whole entry): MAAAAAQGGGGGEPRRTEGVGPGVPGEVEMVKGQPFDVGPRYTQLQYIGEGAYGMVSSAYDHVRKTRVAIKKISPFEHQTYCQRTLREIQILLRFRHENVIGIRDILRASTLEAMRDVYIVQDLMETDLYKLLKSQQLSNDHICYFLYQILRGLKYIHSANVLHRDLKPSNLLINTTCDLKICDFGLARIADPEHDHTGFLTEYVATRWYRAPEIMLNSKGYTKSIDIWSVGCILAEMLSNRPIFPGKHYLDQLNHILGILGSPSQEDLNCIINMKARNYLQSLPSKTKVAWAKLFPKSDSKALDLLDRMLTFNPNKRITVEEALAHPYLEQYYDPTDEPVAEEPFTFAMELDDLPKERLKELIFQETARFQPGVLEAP

Chain of Calcium/calmodulin-dependent protein kinase kinase 2 (Homo sapiens) (Q96RR4 2-588 limits assumed): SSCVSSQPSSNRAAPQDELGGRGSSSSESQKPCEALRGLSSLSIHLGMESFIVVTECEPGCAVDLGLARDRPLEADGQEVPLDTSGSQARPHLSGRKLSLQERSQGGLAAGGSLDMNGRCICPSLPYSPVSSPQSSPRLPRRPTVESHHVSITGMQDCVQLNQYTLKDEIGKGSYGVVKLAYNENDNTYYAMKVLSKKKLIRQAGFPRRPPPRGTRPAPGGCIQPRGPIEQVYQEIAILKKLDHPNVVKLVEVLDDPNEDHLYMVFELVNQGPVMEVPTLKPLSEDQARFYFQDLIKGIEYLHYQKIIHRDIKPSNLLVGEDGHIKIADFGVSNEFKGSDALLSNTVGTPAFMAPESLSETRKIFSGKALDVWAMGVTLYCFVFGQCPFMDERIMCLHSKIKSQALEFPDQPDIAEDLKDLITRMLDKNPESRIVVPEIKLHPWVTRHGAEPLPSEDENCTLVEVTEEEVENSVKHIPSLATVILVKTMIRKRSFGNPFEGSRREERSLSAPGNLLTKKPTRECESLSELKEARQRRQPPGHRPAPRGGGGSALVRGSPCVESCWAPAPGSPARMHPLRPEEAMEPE
Chain of Tyrosine-protein kinase Fgr (Homo sapiens) (P09769 2-529 limits assumed): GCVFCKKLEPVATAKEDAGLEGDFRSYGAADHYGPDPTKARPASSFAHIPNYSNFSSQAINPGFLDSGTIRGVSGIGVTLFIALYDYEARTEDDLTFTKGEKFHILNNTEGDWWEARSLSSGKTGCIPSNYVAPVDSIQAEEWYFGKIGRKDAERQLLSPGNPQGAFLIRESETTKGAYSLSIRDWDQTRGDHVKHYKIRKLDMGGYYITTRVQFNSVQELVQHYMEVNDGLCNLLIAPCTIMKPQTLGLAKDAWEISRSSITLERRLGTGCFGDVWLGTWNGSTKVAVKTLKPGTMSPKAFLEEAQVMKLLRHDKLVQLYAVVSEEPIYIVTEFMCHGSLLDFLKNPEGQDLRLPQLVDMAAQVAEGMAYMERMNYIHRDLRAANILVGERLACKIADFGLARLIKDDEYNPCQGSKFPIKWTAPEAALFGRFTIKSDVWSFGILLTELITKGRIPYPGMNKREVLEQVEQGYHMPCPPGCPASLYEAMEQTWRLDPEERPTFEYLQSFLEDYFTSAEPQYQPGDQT
Chain of Mitogen-activated protein kinase kinase kinase kinase 5 (Homo sapiens) (Q9Y4K4 whole entry, looked up): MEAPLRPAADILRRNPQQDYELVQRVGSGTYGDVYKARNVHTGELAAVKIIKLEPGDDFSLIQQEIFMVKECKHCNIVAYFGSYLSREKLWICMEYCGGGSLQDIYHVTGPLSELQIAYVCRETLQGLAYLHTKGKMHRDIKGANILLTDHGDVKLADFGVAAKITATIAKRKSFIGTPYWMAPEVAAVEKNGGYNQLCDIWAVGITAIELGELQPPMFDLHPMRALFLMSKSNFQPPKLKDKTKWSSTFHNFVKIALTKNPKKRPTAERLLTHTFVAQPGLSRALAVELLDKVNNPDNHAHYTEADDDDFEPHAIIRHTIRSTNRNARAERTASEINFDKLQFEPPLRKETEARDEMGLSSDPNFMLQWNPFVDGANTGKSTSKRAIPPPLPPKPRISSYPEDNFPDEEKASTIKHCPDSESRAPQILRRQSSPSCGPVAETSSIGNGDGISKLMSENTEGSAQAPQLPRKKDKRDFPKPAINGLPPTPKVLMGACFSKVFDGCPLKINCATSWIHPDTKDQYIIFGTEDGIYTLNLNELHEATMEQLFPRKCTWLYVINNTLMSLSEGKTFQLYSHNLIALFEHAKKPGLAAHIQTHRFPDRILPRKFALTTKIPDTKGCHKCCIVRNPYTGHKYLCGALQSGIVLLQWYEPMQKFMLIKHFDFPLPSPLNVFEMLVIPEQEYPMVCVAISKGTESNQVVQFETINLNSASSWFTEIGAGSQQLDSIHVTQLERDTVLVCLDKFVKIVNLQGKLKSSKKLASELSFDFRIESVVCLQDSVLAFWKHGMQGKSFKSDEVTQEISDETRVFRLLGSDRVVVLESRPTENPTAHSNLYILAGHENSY
Chain of Wee1-like protein kinase (Homo sapiens) (P30291 whole entry, looked up): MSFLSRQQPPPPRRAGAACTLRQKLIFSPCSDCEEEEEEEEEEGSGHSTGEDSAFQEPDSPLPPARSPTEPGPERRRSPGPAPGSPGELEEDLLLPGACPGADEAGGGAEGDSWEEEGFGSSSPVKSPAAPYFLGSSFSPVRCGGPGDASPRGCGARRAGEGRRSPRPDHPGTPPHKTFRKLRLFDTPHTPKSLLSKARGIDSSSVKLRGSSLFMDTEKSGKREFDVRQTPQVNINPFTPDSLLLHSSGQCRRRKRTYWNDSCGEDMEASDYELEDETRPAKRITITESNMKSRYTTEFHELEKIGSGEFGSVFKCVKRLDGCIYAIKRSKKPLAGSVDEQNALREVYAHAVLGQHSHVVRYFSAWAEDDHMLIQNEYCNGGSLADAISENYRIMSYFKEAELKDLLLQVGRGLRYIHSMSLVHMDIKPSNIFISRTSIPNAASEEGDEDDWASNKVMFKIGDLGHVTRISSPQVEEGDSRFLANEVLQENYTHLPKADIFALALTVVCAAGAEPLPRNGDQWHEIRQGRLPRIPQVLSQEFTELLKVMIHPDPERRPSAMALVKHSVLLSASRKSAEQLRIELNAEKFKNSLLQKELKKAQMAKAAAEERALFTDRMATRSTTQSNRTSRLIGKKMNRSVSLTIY
Chain of Cyclin-dependent kinase 14 (Homo sapiens) (O94921 whole entry): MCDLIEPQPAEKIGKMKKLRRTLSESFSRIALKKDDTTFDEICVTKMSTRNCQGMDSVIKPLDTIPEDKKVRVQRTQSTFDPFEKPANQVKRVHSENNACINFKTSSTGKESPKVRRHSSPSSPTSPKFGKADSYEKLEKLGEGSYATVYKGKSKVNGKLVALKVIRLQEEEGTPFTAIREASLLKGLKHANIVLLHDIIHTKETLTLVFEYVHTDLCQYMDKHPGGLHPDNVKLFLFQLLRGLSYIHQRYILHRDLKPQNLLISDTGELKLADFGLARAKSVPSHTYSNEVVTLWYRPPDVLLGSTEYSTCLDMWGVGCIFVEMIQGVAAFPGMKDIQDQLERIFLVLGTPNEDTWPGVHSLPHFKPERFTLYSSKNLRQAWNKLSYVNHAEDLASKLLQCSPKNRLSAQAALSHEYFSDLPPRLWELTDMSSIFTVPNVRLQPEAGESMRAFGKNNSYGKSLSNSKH
Chain of Mitogen-activated protein kinase kinase kinase 20 (Homo sapiens) (Q9NYL2 2-800 limits assumed): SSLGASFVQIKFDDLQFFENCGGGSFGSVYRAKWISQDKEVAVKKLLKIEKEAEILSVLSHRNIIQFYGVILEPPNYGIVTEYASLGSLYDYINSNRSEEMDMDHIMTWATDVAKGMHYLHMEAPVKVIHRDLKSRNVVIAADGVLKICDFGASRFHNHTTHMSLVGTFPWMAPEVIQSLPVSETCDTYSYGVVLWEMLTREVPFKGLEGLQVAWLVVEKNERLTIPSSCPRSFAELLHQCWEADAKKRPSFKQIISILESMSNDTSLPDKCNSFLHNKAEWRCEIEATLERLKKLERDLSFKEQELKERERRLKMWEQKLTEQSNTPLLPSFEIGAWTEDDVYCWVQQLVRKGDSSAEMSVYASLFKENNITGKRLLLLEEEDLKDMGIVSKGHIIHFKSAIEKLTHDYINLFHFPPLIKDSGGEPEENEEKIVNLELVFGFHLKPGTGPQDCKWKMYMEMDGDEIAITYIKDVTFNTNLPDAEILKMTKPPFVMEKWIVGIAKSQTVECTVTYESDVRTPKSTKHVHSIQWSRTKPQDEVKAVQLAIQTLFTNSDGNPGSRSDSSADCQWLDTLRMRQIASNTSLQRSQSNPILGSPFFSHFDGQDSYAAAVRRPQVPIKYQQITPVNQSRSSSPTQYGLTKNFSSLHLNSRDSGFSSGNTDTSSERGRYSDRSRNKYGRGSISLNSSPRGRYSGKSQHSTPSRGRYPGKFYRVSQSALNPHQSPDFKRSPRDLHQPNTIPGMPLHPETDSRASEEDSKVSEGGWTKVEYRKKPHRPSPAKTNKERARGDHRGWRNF
Chain of Mitogen-activated protein kinase 14 (Homo sapiens) (Q16539 whole entry): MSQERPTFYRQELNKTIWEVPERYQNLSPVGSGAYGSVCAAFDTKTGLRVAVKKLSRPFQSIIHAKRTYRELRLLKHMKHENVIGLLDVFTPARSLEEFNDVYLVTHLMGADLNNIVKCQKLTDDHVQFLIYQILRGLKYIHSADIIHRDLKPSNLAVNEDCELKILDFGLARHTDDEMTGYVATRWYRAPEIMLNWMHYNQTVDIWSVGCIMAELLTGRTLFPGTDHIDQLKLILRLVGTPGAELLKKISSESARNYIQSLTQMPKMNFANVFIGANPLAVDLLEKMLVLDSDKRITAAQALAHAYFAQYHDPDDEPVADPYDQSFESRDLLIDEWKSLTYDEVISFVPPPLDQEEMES
Chain of Serine/threonine-protein kinase Nek6 (Homo sapiens) (Q9HC98 whole entry): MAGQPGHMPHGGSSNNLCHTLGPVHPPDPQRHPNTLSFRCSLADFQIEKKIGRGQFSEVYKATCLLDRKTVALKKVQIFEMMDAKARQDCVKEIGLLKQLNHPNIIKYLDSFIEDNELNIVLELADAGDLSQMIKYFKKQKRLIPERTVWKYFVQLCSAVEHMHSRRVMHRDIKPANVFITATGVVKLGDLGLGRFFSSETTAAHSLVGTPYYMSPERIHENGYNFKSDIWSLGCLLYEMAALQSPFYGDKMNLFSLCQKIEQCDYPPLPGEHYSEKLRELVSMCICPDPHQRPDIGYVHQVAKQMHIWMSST

C[C@H]1COc2c(NCCCc3ccccn3)c(F)c(N)c3c(=O)c(C#N)cn1c23
< 35%: inhibition [1] | inhibition [2] | inhibition [3] | inhibition [4] | inhibition [5] | inhibition [6] | inhibition [7] | inhibition at 0.1 µM [8] | inhibition [9] | inhibition [10] | inhibition at 0.1 µM [11] | inhibition [12] | inhibition [13] | inhibition [14] | inhibition [15] | inhibition [16] | inhibition [17] | inhibition [18] | inhibition [19]

C[C@H]1COc2c(NCCCc3ccccn3)c(F)c(N)c3c(=O)c(C(=O)O)cn1c23
< 35%: inhibition [1] | inhibition [2] | inhibition [3] | inhibition [4] | inhibition [5] | inhibition [6] | inhibition [7] | inhibition at 0.1 µM [8] | inhibition [9] | inhibition [10] | inhibition at 0.1 µM [11] | inhibition [12] | inhibition [13] | inhibition [14] | inhibition [15] | inhibition [16] | inhibition [17] | inhibition [18] | inhibition [19]

C[C@H]1COc2c(NCCCn3cccn3)c(F)c(N)c3c(=O)c(C(=O)O)cn1c23
< 35%: inhibition [1] | inhibition [2] | inhibition [3] | inhibition [4] | inhibition [5] | inhibition [6] | inhibition [7] | inhibition at 0.1 µM [8] | inhibition [9] | inhibition [10] | inhibition at 0.1 µM [11] | inhibition [12] | inhibition [13] | inhibition [14] | inhibition [15] | inhibition [16] | inhibition [17] | inhibition [18] | inhibition [19]

C[C@H]1COc2c(NCCCn3cccn3)c(F)c(N)c3c(=O)c(C#N)cn1c23
< 35%: inhibition [1] | inhibition [2] | inhibition [3] | inhibition [4] | inhibition [5] | inhibition [6] | inhibition [7] | inhibition at 0.1 µM [8] | inhibition [9] | inhibition [10] | inhibition at 0.1 µM [11] | inhibition [12] | inhibition [13] | inhibition [14] | inhibition [15] | inhibition [16] | inhibition [17] | inhibition [18] | inhibition [19]
